According to patent US20130225830A1, “POLYMORPHS OF FEBUXOSTAT” (MAPI PHARMA LIMITED, priority 2010, published 2013):
Converted amounts (≈) assume the structure as drawn. Like-named read-outs stand apart in the source and are kept apart here.

Key:
Type in all cases: physicochemical
[1] = Aqueous solubility measurements; conditions: for solubility at 24 h: 25 °C, thermodynamic from solid, read-out: HPLC solubility; for pH: final pH of saturated solution
Protocol: Testing media: water, pH 1.2, 4.5, 6.8, 7.4 USP buffers, 0.01 N HCl, 0.1 N HCl, SGF, FaSSIF, FeSSIF.
The various testing media were prepared as follows:
pH 1.2 (USP): 50 mL of 0.2 M potassium chloride solution were placed in a 200 mL volumetric flask to which 85.0 mL of 0.2M hydrochloric acid solution were added followed by the addition of water to obtain the required volume.
pH 4.5 (USP): 50 mL of 0.2 M potassium biphthalate solution were placed in a 200 mL volumetric flask to which 8.8 mL of 0.2 M sodium hydroxide solution were added followed by the addition of water to obtain the required volume.
pH 6.8 (USP): 50 mL of 0.2 M monobasic potassium phosphate solution were placed in a 200 mL volumetric flask to which 22.4 mL of 0.2 M sodium hydroxide solution were added followed by the addition of water to obtain the required volume.
pH 7.4 (USP): 50 mL of 0.2 M monobasic potassium phosphate solution were placed in a 200 mL volumetric flask to which 39.1 mL of 0.2 M sodium hydroxide solution were added followed by the addition of water to obtain the required volume.
Simulated gastric fluid (SGF): 0.01 N HCl, 0.05% sodium lauryl sulfate, and 0.2% NaCl.
Fasted state simulated intestinal fluid (FaSSIF): 29 mM NaH2PO4, 3 mM Na taurocholate, 0.75 mM lecithin, 103 mM NaCl, and NaOH to obtain pH 6.5.
Fed state simulated intestinal fluid (FeSSIF): 144 mM acetic acid, 15 mM Na taurocholate, 3.75 mM lecithin, 204 mM NaCl, and NaOH to obtain pH 5.0.
Testing procedure: The tested febuxostat form was placed in each of the different media and was kept shaken for 24 hours at 25° C. Then, the saturated solution was filtered. The concentration of the febuxostat form in filtrate was determined by HPLC. The final pH was then tested. The test was conducted in duplication.

[2] = Hygroscopicity measurements (DVS sorption/desorption profiles); conditions: 25° C.
Protocol: The sorption/desorption profiles of the forms of the present invention were tested at 25° C. under 0-90% relative humidity. The forms of the present invention were classified according to the following criteria: Deliquescent: Sufficient water is absorbed to form a liquid. […] Hygroscopic: Increase in mass is less than 15% and equal to or greater than 2%. Slightly hygroscopic: Increase in mass is less than 2% and equal to or greater than 0.2%. Non-hygroscopic: Increase in mass is less than 0.2%.

[3] = Bulk and tapped density measurements
Protocol: Bulk density testing: A febuxostat form in an amount which is sufficient to complete the test was passed through a 1.0 mm (No. 18) screen to break up agglomerates that may have formed during storage. The febuxostat form was then weighed (M) and the powder was added into a 10 mL graduated cylinder. The powder was carefully leveled without compacting, and the unsettled apparent volume, Vo, was read. The bulk density, in g per mL, was calculated by the formula: Bulk Density=M/Vo Tapped density testing: A febuxostat form in an amount which is sufficient to complete the test was passed through a 1.0 mm (No. 18) screen to break up agglomerates that may have formed during storage. The febuxostat form was then weighed and the powder was added into a 10 mL graduated cylinder. The powder was carefully leveled without compacting. The cylinder was tapped 500 times initially and the tapped volume, Va, was measured to the nearest graduated unit. The tapping was then repeated for additional 750 times and the tapped volume, Vb, was measured to the nearest graduated unit. If the difference between the two volumes was less than 2%, Vb was taken as the final tapped volume, Vf. The tapped density, in g per mL, was calculated by the formula: Tapped Density=M/Vf

[4] = media 0.01N HCl, 24 hours at 25° C.
[5] = media 0.1N HCl, 24 hours at 25° C.
[6] = media FaSSIF, 24 hours at 25° C.
[7] = media FeSSIF, 24 hours at 25° C.
[8] = media pH 1.2 (USP), 24 hours at 25° C.
[9] = media pH 4.5 (USP), 24 hours at 25° C.
[10] = media pH 6.8 (USP), 24 hours at 25° C.
[11] = media pH 7.4 (USP), 24 hours at 25° C.
[12] = media water, 24 hours at 25° C.

With `Cc1nc(-c2ccc(OCC(C)C)c(C#N)c2)sc1C(=O)O` [Form G of U.S. Pat. No. 6,225,474, 2-(3-cyano-4-isobutoxyphenyl)-4-methyl-5-thiazolecarboxylic acid, reference compound] the solubility at 24 h ([1]; FaSSIF, pH 6.5, fassif, media FaSSIF, 24 hours at 25° C.) was 448 µg/mL (≈ 1420 µM), the solubility at 24 h ([1]; FeSSIF, pH 5, fessif, media FeSSIF, 24 hours at 25° C.) was 132 µg/mL (≈ 418 µM) and the pH [1, 4] was 1.987. It also gave a pH [1, 5] of 0.945, a pH [1, 6] of 6.384 and a pH [1, 7] of 4.965. For the same molecule, the pH ([1]; media SGF, 24 hours at 25° C.) was 2.118, the pH [1, 8] was 1.089 and the pH [1, 9] was 4.469. For the same molecule, the pH [1, 10] was 6.686, the pH [1, 11] was 6.985 and the pH ([1]; media water, shaken 24 hours at 25° C.) was 8.416. For the same molecule, the Visual solubility [1, 4] was “few particles”, the Visual solubility [1, 5] was “few particles” and the Visual solubility [1, 6] was “Turbid + few particles”. For the same molecule, the Visual solubility [1, 7] was “Turbid + few particles”, the Visual solubility ([1]; media SGF, 24 hours at 25° C.) was “few particles” and the Visual solubility [1, 8] was “few particles”. The “HPLC solubility” value [1, 9] was 0.11 µg/mL, the Visual solubility [1, 9] was “few particles” and the “HPLC solubility” value [1, 10] was 764.90 µg/mL. The Visual solubility [1, 10] was “Turbid + few particles”, the Visual solubility [1, 11] was “Slightly Turbid + few” and the “HPLC solubility” value [1, 12] was 29.80 µg/mL. The Visual solubility [1, 12] was “Turbid + few particles”, the solubility at 24 h ([1]; pH 7.4 USP buffer, pH 7.4, aqueous buffer, media pH 7.4 (USP), 24 hours at 25° C.) was 3330 µg/mL (≈ 10500 µM) and the “Change in Mass (%) - ref, Desorption” value ([2]; Target % P/P0 0.0) was −0.013%. The “Change in Mass (%) - ref, Sorption” value ([2]; Target % P/P0 0.0) was 0.000%, the “Change in Mass (%) - ref, Desorption” value ([2]; Target % P/P0 10.0) was 1.323% and the “Change in Mass (%) - ref, Hysteresis” value ([2]; Target % P/P0 10.0) was 0.241%. For the same molecule, the “Change in Mass (%) - ref, Sorption” value ([2]; Target % P/P0 10.0) was 1.082%, the “Change in Mass (%) - ref, Desorption” value ([2]; Target % P/P0 20.0) was 1.540% and the “Change in Mass (%) - ref, Hysteresis” value ([2]; Target % P/P0 20.0) was 0.215%. For the same molecule, the “Change in Mass (%) - ref, Sorption” value ([2]; Target % P/P0 20.0) was 1.326%, the “Change in Mass (%) - ref, Desorption” value ([2]; Target % P/P0 30.0) was 1.692% and the “Change in Mass (%) - ref, Hysteresis” value ([2]; Target % P/P0 30.0) was 0.219%. The “Change in Mass (%) - ref, Sorption” value ([2]; Target % P/P0 30.0) was 1.473%, the “Change in Mass (%) - ref, Desorption” value ([2]; Target % P/P0 40.0) was 1.806% and the “Change in Mass (%) - ref, Hysteresis” value ([2]; Target % P/P0 40.0) was 0.181%. For the same molecule, the “Change in Mass (%) - ref, Sorption” value ([2]; Target % P/P0 40.0) was 1.625%, the “Change in Mass (%) - ref, Desorption” value ([2]; Target % P/P0 50.0) was 1.923% and the “Change in Mass (%) - ref, Hysteresis” value ([2]; Target % P/P0 50.0) was 0.173%. The “Change in Mass (%) - ref, Sorption” value ([2]; Target % P/P0 50.0) was 1.750%, the “Change in Mass (%) - ref, Desorption” value ([2]; Target % P/P0 60.0) was 2.074% and the “Change in Mass (%) - ref, Hysteresis” value ([2]; Target % P/P0 60.0) was 0.158%. The “Change in Mass (%) - ref, Sorption” value ([2]; Target % P/P0 60.0) was 1.915%, the “Change in Mass (%) - ref, Desorption” value ([2]; Target % P/P0 70.0) was 2.229% and the “Change in Mass (%) - ref, Hysteresis” value ([2]; Target % P/P0 70.0) was 0.119%. For the same molecule, the “Change in Mass (%) - ref, Sorption” value ([2]; Target % P/P0 70.0) was 2.109%, the “Change in Mass (%) - ref, Desorption” value ([2]; Target % P/P0 80.0) was 2.420% and the “Change in Mass (%) - ref, Hysteresis” value ([2]; Target % P/P0 80.0) was 0.078%. The “Change in Mass (%) - ref, Sorption” value ([2]; Target % P/P0 80.0) was 2.342%, the “Change in Mass (%) - ref, Desorption” value ([2]; Target % P/P0 90.0) was 2.776% and the “Change in Mass (%) - ref, Sorption” value ([2]; Target % P/P0 90.0) was 2.776%. The “Bulk Density” value [3] was 0.376 g/mL and the “Tapped Density” value [3] was 0.511 g/mL.
